Experimental data from the supplement of paper PMC10883282.
± gives the standard deviation of the averaged measurements.

Test system: KHOS-240S
Assay: relative viability vs DMSO control (72 h) (fraction); higher = more viable cells
Procedure, shortened: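 Relative viability was measured with ATPLite and expressed as percent growth, averaged across up to triplicate wells. Sarcoma cell lines had been seeded in 384-well plates to reach 80–90% confluence, dosed after 24 h, and incubated 72 h at 37 °C, 5% CO2. All data were rescaled on a scale where 1 is full and 0 is none.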

Structure (SMILES) | relative viability (0.00017 µM) | relative viability (0.00051 µM) | relative viability (0.00152 µM) | relative viability (0.00457 µM) | relative viability (0.01372 µM) | relative viability (0.04115 µM) | relative viability (0.1235 µM) | relative viability (0.3704 µM) | relative viability (1.111 µM) | relative viability (3.333 µM) | relative viability (10 µM)
C=CC(=O)N1CCC[C@@H](n2nc(-c3ccc(Oc4ccccc4)cc3)c3c(N)ncnc32)C1 [Ibrutinib] | 1.03 ± 0.038 | 1.08 ± 0.064 | 1.09 ± 0.078 | 1.09 ± 0.079 | 1.05 ± 0.054 | 1.08 ± 0.053 | 1.05 ± 0.1 | 1.05 ± 0.081 | 0.979 ± 0.045 | 0.884 ± 0.035 | 0.587 ± 0.015
CC[C@H](Nc1ncnc2[nH]cnc12)c1nc2cccc(F)c2c(=O)n1-c1ccccc1 [Idelalisib] | 1.1 ± 0.062 | 1.11 ± 0.064 | 1.11 ± 0.056 | 1.1 ± 0.065 | 1.09 ± 0.071 | 1.08 ± 0.068 | 1.08 ± 0.051 | 1.06 ± 0.078 | 1.03 ± 0.058 | 0.942 ± 0.074 | 0.901 ± 0.079
O=C(Cc1ccc(-c2ccc(OCCN3CCOCC3)cc2)cn1)NCc1ccccc1 [KX2-391] | 1.07 ± 0.025 | 1.1 ± 0.037 | 1.1 ± 0.02 | 1.07 ± 0.035 | 1.06 ± 0.049 | 0.896 ± 0.022 | 0.26 ± 0.013 | 0.221 ± 0.014 | 0.161 ± 0.011 | 0.142 ± 0.02 | 0.134 ± 0.015
O=C(Nc1cnn2ccc(N3CCC[C@@H]3c3cc(F)ccc3F)nc12)N1CC[C@H](O)C1 [Larotrectinib] | 1.1 ± 0.045 | 1.07 ± 0.064 | 1.1 ± 0.091 | 1.07 ± 0.093 | 1.05 ± 0.066 | 1.05 ± 0.02 | 1.09 ± 0.066 | 1.09 ± 0.068 | 1.06 ± 0.06 | 1.07 ± 0.079 | 1.05 ± 0.082
Cc1ccc(F)c(NC(=O)Nc2ccc(-c3cccc4[nH]nc(N)c34)cc2)c1 [Linifanib] | 1.06 ± 0.02 | 1.08 ± 0.08 | 1.059 ± 0.0094 | 1.07 ± 0.031 | 1.05 ± 0.029 | 1.08 ± 0.041 | 1.03 ± 0.049 | 1.04 ± 0.054 | 1.06 ± 0.043 | 1.04 ± 0.011 | 0.999 ± 0.054
C[C@]1(O)C[C@@H](c2nc(-c3ccc4ccc(-c5ccccc5)nc4c3)c3c(N)nccn32)C1 [Linsitinib] | 1.08 ± 0.029 | 1.1 ± 0.054 | 1.08 ± 0.026 | 1.07 ± 0.045 | 1.07 ± 0.025 | 1.07 ± 0.048 | 0.992 ± 0.018 | 0.917 ± 0.018 | 0.911 ± 0.026 | 0.845 ± 0.036 | 0.56 ± 0.0069
Cc1ccc(NC(=O)c2ccc(CN3CCN(C)CC3)cc2)cc1Nc1nc(-c2cccnc2)cs1 [Masitinib] | 1.02 ± 0.03 | 1.03 ± 0.021 | 1.04 ± 0.017 | 1.03 ± 0.011 | 1.01 ± 0.051 | 1.01 ± 0.047 | 0.98133 ± 0.00047 | 0.862 ± 0.033 | 0.758 ± 0.012 | 0.474 ± 0.028 | 0.109 ± 0.005
CC1(C)CNc2cc(NC(=O)c3cccnc3NCc3ccncc3)ccc21 [Motesanib] | 0.972 ± 0.026 | 0.982 ± 0.027 | 0.973 ± 0.03 | 0.992 ± 0.025 | 0.983 ± 0.018 | 0.96 ± 0.023 | 0.97 ± 0.013 | 0.931 ± 0.042 | 0.922 ± 0.075 | 0.874 ± 0.066 | 0.803 ± 0.03
CC(C)N1CCN(Cc2cnc(-c3cc(-c4cccc5[nH]ccc45)cc4[nH]ncc34)o2)CC1 [Nemiralisib] | 0.971 ± 0.016 | 0.972 ± 0.027 | 0.98 ± 0.026 | 0.971 ± 0.024 | 0.966 ± 0.017 | 0.939 ± 0.018 | 0.956 ± 0.027 | 0.927 ± 0.035 | 0.93 ± 0.041 | 0.759 ± 0.018 | 0.455 ± 0.026
C=CC(=O)Nc1cccc(Oc2nc(Nc3ccc(N4CCN(C)CC4)cc3)nc3ccsc23)c1 [Olmutinib] | 1.01 ± 0.015 | 1.03 ± 0.014 | 1.04 ± 0.018 | 1.02 ± 0.025 | 1.01 ± 0.024 | 1.04 ± 0.011 | 1.03 ± 0.032 | 0.997 ± 0.04 | 0.998 ± 0.035 | 0.865 ± 0.036 | 0.39 ± 0.017
CC(C)(C)c1cc(NC(=O)Nc2ccc(-c3cn4c(n3)sc3cc(OCCN5CCOCC5)ccc34)cc2)no1 [Quizartinib] | 1.06 ± 0.037 | 1.05 ± 0.011 | 1.05 ± 0.025 | 1.05 ± 0.02 | 1.06 ± 0.026 | 1.049 ± 0.0031 | 1.03 ± 0.029 | 1.01 ± 0.027 | 0.994 ± 0.036 | 0.796 ± 0.05 | 0.7219 ± 0.0064
CNC(=O)c1cc(Oc2ccc(NC(=O)Nc3ccc(Cl)c(C(F)(F)F)c3)c(F)c2)ccn1 [Regorafenib] | 1.05 ± 0.055 | 1.09 ± 0.052 | 1.07 ± 0.051 | 1.07 ± 0.053 | 1.1 ± 0.059 | 1.1 ± 0.049 | 1.09 ± 0.04 | 1.04 ± 0.014 | 0.96 ± 0.09 | 0.812 ± 0.045 | 0.5087 ± 0.00089
CO[C@H]1C[C@@H]2CC[C@@H](C)[C@@](O)(O2)C(=O)C(=O)N2CCCC[C@H]2C(=O)O[C@H]([C@H](C)C[C@@H]2CC[C@@H](OP(C)(C)=O)[C@H](OC)C2)CC(=O)[C@H](C)/C=C(\C)[C@@H](O)[C@@H](OC)C(=O)[C@H](C)C[C@H](C)/C=C/C=C/C=C/1C [Ridaforolimus] | 1.03 ± 0.012 | 1.03 ± 0.027 | 0.987 ± 0.027 | 0.932 ± 0.015 | 0.919 ± 0.026 | 0.898 ± 0.022 | 0.878 ± 0.014 | 0.851 ± 0.016 | 0.826 ± 0.032 | 0.777 ± 0.018 | 0.741 ± 0.017
COCc1c(-c2cc3cc(C)cc(OC)c3s2)c2c(N)ncnn2c1CN1CCNC(=O)C1 [Rogaratinib] | 1.04 ± 0.015 | 1.07 ± 0.028 | 1.07 ± 0.046 | 1.07 ± 0.061 | 1.03 ± 0.011 | 0.995 ± 0.053 | 0.9 ± 0.025 | 0.821 ± 0.019 | 0.783 ± 0.045 | 0.671 ± 0.046 | 0.511 ± 0.036
